Experimental data taken from patent US10864192B2, “Compositions and methods for inhibiting brain trauma-induced neurodegeneration and related conditions” (priority 2016, dated 2020).
Several values for one entry are separate records, joined by “and”; a condition that tells them apart may be missing. Equal entries are not always repeated.

Tests used:
SH-SY5Y neuronal cells = test: Phenserine plus anti-inflammatory drug, oxidative stress and trophic effects in SH-SY5Y cells (MTS assay)
Experimental: Human SH-SY5Y neuronal cells were seeded in 96-well plates at a density of 1×10^5 cells per well and allowed to grow for 24 hr. […] […] At 18 hr thereafter a MTS assay was performed per the manufacturers protocol (Abcam, Cambridge, Mass.) to measure cell viability.
For example, instead of aspirin (as shown in FIG. 3A), an NSAID, naproxen, was used under the same experimental conditions at concentrations in FIGS. 3B-3D.

clinical = test: clinical
Excerpt: FIGS. 33-34 depict two graphs from an Excel spreadsheet. FIG. 33 is a linear plot of plasma level vs time and FIG. 34 is a semi-log plot of plasma conc. vs time.

[1] = test system: acetyl- and butyrylcholinesterase; test: Cholinesterase inhibition in mice after the final dose; assay type: in vivo, mouse; settings: 24 hours following the final dose
Excerpt: The same model of concussive head injury described above with respect to FIG. 7 was used in the experiments described below with respect to FIGS. 8 and 9. […] Previous studies of drug and metabolite concentrations have shown acetylcholinesterase inhibition to be present when any concentration of drug or metabolite have been detected. […] Drug and its metabolites have been shown undetectable when no anticholinesterase activities are present.

[2] = Plasma concentrations of phenserine and its metabolites in human plasma; assay type: in vivo
Experimental: The relationship between pharmacokinetic and pharmacodynamics evaluated in FIG. 15 was evaluated in aged volunteers. A total of 32 subjects (60-80 years of age, 11 males/21 females) were screened and enrolled. All participants provided informed consent, the conduct of the study were approved and overseen by the local Review IRB.
For pharmacokinetic (blood concentrations of primary drug and select metabolites) a dose […] additionally was evaluated.
These were centrifuged within 15 min of collection, and stored in a freezer at −70° C. freezer in marked polypropylene tubes until analysis. Phenserine levels were quantified by liquid chromatography/mass spectrometry (LC/MS/MS). In brief, analyses were undertaken on Perkin-Elmer (PE, Norwalk, USA) high performance liquid chromatographic (HPLC) instrumentation. Compound separation was performed on a Phenomenex LUNA C18 column (5 μM, 2.0 mm×150 mm; Torrance, USA), with a Phenomenex guard column (2 mm×30 mm). The mobile phase was 60% acetonitrile (HPLC grade) plus 40% ammonium acetate (v/v) with a flow rate of 0.4 mL/min. […] Thereafter, 2 mL of tert-butyl methyl ether was added and the sample was mixed and flash frozen. The organic layer was decanted, dried under a stream of nitrogen and reconstituted into 250 μL of mobile phase. Of this, a 60 μL sample was then injected into the HPLC.

[3] = test system: cultured hippocampal neurons; test: Glutamate-induced excitotoxicity in cultured neurons; assay type: cell-based, rat (Sprague Dawley); settings: phenserine 5 μM, glutamate 50 μM, 24 hr
Experimental: Briefly, cultured hippocampal neurons in triplicate were prepared from 18-20 day rat (Sprague Dawley) embryos and were cultured for 7 days. […] Neuronal viability was assessed 24 hr after addition of glutamate. The results are plotted as percent neuronal survival±SEM. […] Twenty-four hours later cell viability was quantified (by MTS assay—using, for example but not limited to, the CellTiter 96 Aqueous One Solution Cell Proliferation Assay kit (Promega, Madison, Wis., USA) according to the manufacturer's instructions).

[4] = Tolerability of immediate release phenserine in patients; assay type: in vivo, human; settings: immediate release dose of 20 mg
SH-SY5Y cells [5] = test: H2O2-induced oxidative stress in SH-SY5Y cells (MTS assay); assay type: cell-based, human; settings: phenserine 10 and 30 μM, 100 μM H2O2, 24 hr
SH-SY5Y cells [6] = test: Oxygen-glucose deprivation/reperfusion (OGD/RP) damage on SH-SY5Y cells; assay type: cell-based, human
Experimental: Briefly, Human neuroblastoma SH-SY5Y cells were incubated in oxygen-glucose deprivation and hypoxia using serum- and glucose-free media and 95% N2 and 5% CO2 for 5 minutes. Adult male Sprague-Dawley rats (250 to 350 g weight) were anesthetized with chloral hydrate (0.4 g/kg, intraperitoneally) and right middle cerebral artery (MCA) was ligated for 60 minutes. The core body temperature of animals was maintained at 37° C. throughout the procedure.

[7] = test system: human peripheral blood mononuclear cells (PBMCs); test: PHA-induced cytokine production in human PBMCs; assay type: cell-based; settings: phenserine 100 nM to 10 μM, 24 hr, PHA 3 μg/mL
Excerpt: The detection limit for these assays is <1 pg/mL for IL-1beta and <3 pg/mL for IL-10. The intra- and inter-assay CV was <10%. All results are expressed in picograms per milliliter.

[8] = molecular target: amyloid precursor protein (APP) (Mus musculus (Mouse), UniProt P12023); test: Amyloid precursor protein in primary cortical neurons (Western blot); assay type: cell-based; settings: 48 hr
Sequence of amyloid precursor protein (APP) (P12023 whole entry, looked up): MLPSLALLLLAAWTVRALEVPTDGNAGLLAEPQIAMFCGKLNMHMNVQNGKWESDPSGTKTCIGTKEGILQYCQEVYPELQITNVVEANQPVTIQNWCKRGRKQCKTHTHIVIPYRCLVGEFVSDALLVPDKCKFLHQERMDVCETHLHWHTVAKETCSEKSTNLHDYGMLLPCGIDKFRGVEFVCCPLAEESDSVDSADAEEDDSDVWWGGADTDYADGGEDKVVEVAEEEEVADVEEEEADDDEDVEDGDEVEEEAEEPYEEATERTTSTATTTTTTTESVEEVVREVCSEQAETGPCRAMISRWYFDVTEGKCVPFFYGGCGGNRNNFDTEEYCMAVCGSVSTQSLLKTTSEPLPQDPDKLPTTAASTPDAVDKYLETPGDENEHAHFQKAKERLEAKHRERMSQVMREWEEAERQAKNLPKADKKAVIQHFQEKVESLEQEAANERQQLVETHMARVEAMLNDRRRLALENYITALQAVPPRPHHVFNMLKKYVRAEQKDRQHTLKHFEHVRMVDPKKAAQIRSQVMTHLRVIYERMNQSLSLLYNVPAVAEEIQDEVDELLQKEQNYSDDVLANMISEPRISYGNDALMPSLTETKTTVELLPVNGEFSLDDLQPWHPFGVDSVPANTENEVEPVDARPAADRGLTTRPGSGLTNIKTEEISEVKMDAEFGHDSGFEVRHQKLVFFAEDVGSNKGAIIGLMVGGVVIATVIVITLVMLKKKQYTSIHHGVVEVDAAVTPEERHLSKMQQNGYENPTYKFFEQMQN
Experimental: Primary cortical neurons were harvested and isolated from mice, and then were cultured in line with methodologies known in the art. In brief, embryonic day 15-18 mouse pups were obtained from timed pregnant female mice (5 pups). Within a laminar flow cell culture hood, the brain was removed from these mouse pups and the meninges and blood vessels were carefully removed. […] Maintained on wet ice, individual cells were then isolated by titrating some 10 times to dissociate cells by use of using a glass pasture pipette with a fire polished tip. […]
Following maintenance in cell culture (>24 hr) primary cortical neurons were challenged to known concentrations of experimental drugs for 48 hr, or vehicle (culture media) alone. […] Quantification of select proteins, for example AAP was undertaken by Western Blotting using the APP N-terminal antibody (22C11) obtained from Chemicon (Temecula, Calif.). The housekeeping protein β-actin quantified in the same samples to allow normalization, and was probed with anti-β-actin (Chemicon). The Western blots were developed by using chemiluminescence (PIERCE), were visualized with a Phospholmager (BioRad, Hercules, Calif.), and resulting bands were quantified by QuantityOne software (BioRad).

CN1CC[C@@]2(C)c3cc(OC(=O)Nc4ccccc4)ccc3N(C)[C@@H]12 [phenserine, (−)-phenylcarbamoyleseroline]
oxidative stress-induced cellular death (cell viability) (SH-SY5Y neuronal cells; ASA 10^−5 M, (−)-Phen 10^−7 M, 10^−6 M, H2O2 50 μM, 18 hr): no activity
loss in cell viability following oxidative stress (SH-SY5Y neuronal cells; H2O2 300 μM, phenserine 100 nM, naproxen 10 to 1000 nM): does not statistically mitigate
neurotrophic effect (cell survival) (SH-SY5Y neuronal cells; phenserine 10 nM, naproxen 100 nM): no neurotrophic action
Cmax (clinical; human, in vivo, 15 mg): 3.02 ng/mL and 8.9 nM
expected plasma levels (clinical; targeted 30 mg/d or 60 mg/d in sustained release formulation): 1.58 to 0.53 ng/ml
inhibition of acetyl- and butyrylcholinesterase [1]: no inhibition
Average Plasma Concentrations ([2]; Hour 1): 3.02 ng/mL
Average Plasma Concentrations ([2]; Hour 2): 2.09 ng/mL
Average Plasma Concentrations ([2]; Hour 3): 1.08 ng/mL
Average Plasma Concentrations ([2]; Hour 4): 0.31 ng/mL
cell viability (percent neuronal survival) [3]: 73.5 % of control levels
negative consequences in patients [4]: negative consequences (e.g., vomiting, diarrhea, nausea, etc.) have been observed
H2O2-mediated neuronal toxicity (cell viability) (SH-SY5Y cells [5]): significantly ameliorated
matrix metallopeptidase 9 (MMP-9) (SH-SY5Y cells [6]): reduced
PHA-induced anti-inflammatory IL-10 levels [7]: without impacting
PHA-induced elevation in pro-inflammatory IL-1β levels [7]: substantially mitigated
amyloid precursor protein level [8]: inhibition of amyloid precursor protein
